The values that follow are results of earlier work, collected in patent US6258550A, “Polypeptides that include conformation-constraining groups which flank a protein-protein interaction site” (Virginia Commonwealth University, priority 1999, dated 2001).

Structures are written as SMILES. Where a SMILES comes first, the peptide text is derived from it.

The test system of the series is receptors of sweet tasting papillae. The note with it: comparison sweetener.

Consider `COC(=O)[C@H](Cc1ccccc1)NC(=O)[C@@H](N)CC(=O)O` [aspartame] (H-Asp-Phe-OMe), for which the “Sweetness relative to sugar” value is recorded as 160 times sweeter than sugar.
